Laboratory results reported in patent US10703764B2, “Benzopiperazine compositions as BET bromodomain inhibitors” (FORMA Therapeutics, Inc., priority 2013, dated 2020).

How the values were obtained:
BRD4 BD1 = biological target: T1, BRD4 BD1 (Homo sapiens, UniProt O60885); assay: AlphaScreen binding assay, BRD4 Bromodomain 1
T1 construct: made in house
Outline: (§1)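 An AlphaScreen competition format was used with His-BRD4 BD1 or BD2 and biotin-H4 K5/8/12/16-acetyl peptide, each at matched final levels of 50 nM (BD1) or 100 nM (BD2). Incubation in HEPES/NaCl buffer with 0.1% BSA and 0.01% Triton X-100 ran ≥1 h before IC50 determination.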

MV4-11 cells = assay: Oncology cell growth assay (3-day proliferation, CellTiter-Glo); assay type: cell-based; conditions: Homo sapiens, MV4-11, 72 h, AML cell line MV4-11, 72 hours, compounds grouped by IC50 range, read-out: MV4-11 IC50 (inhibition of proliferation, gIC50)
Outline: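 72 h, 37° C, 5% CO2; MV4-11, 3000 cells/well, RPMI 1640 + 10% FBS. Compound final 10, 3.3, 1.1, 0.37, 0.12, 0.041, 0.013, 0.0045 μM. Readout CellTiter-Glo luminescence; gIC50 by 4-parameter logistic fit, normalised to DMSO and no-cell background.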

BRD4 BD2 = biological target: T2, BRD4 BD2 (Homo sapiens, UniProt O60885); assay: AlphaScreen binding assay, BRD4 Bromodomain 2
T2 construct: made in house
Outline: as §1

IC50 (BRD4 BD1) | IC50 (MV4-11 cells) | IC50 (BRD4 BD2) | SMILES
1000 to 10000 nM | > 500 nM | 50 to 500 nM | CCS(=O)(=O)Nc1cccc(-c2ccc3c(c2)N(C(=O)C2CCC2)C[C@H](C)N3C(C)=O)c1 [Example I-1055]
1000 to 10000 nM | > 500 nM | 50 to 500 nM | CCOC(=O)N1C[C@H](C)N(C(C)=O)c2ccc(-c3cccc(NS(=O)(=O)CC)c3)cc21 [Example I-1056]
100 to 1000 nM | 100 to 500 nM | 50 to 500 nM | CCS(=O)(=O)Nc1cccc(-c2ccc3c(c2)N(C(=O)OC(C)C)C[C@H](C)N3C(C)=O)c1 [Example I-1057]
1000 to 10000 nM | 100 to 500 nM | 50 to 500 nM | CC(=O)N1c2ccc(-c3ccc(N4CCOCC4)cc3)cc2N(C(=O)C2CC2)C[C@@H]1C [Example I-1058]
1000 to 10000 nM | 100 to 500 nM | 50 to 500 nM | CC(=O)N1c2ccc(-c3ccc(N4CCOCC4)cc3)cc2N(C(=O)C2CCC2)C[C@@H]1C [Example I-1059]
1000 to 10000 nM | > 500 nM | 50 to 500 nM | CCOC(=O)N1C[C@H](C)N(C(C)=O)c2ccc(-c3ccc(N4CCOCC4)cc3)cc21 [Example I-1060]
1000 to 10000 nM | > 500 nM | 50 to 500 nM | CC(=O)N1c2ccc(-c3ccc(N4CCOCC4)cc3)cc2N(C(=O)OC(C)C)C[C@@H]1C [Example I-1061]
1000 to 10000 nM | > 500 nM | 50 to 500 nM | CC(=O)N1c2ccc(-c3ccc(S(=O)(=O)C(C)C)cc3)cc2N(C(=O)C2CC2)C[C@@H]1C [Example I-1062]
1000 to 10000 nM | > 500 nM | 50 to 500 nM | CC(=O)N1c2ccc(-c3ccc(S(=O)(=O)C(C)C)cc3)cc2N(C(=O)C2CCC2)C[C@@H]1C [Example I-1063]
1000 to 10000 nM | > 500 nM | 50 to 500 nM | CCOC(=O)N1C[C@H](C)N(C(C)=O)c2ccc(-c3ccc(S(=O)(=O)C(C)C)cc3)cc21 [Example I-1064]
100 to 1000 nM | 100 to 500 nM | 50 to 500 nM | CC(=O)N1c2ccc(-c3ccc(S(=O)(=O)C(C)C)cc3)cc2N(C(=O)OC(C)C)C[C@@H]1C [Example I-1065]
1000 to 10000 nM | > 500 nM | 50 to 500 nM | CC(=O)N1c2ccc(-c3ccc(S(N)(=O)=O)cc3)cc2N(C(=O)C2CC2)C[C@@H]1C [Example I-1066]
> 10000 nM | > 500 nM | 50 to 500 nM | CC(=O)N1c2ccc(-c3ccc(S(N)(=O)=O)cc3)cc2N(C(=O)C2CCC2)C[C@@H]1C [Example I-1067]
1000 to 10000 nM | > 500 nM | 50 to 500 nM | CCOC(=O)N1C[C@H](C)N(C(C)=O)c2ccc(-c3ccc(S(N)(=O)=O)cc3)cc21 [Example I-1068]
100 to 1000 nM | 100 to 500 nM | 50 to 500 nM | CC(=O)N1c2ccc(-c3ccc(S(N)(=O)=O)cc3)cc2N(C(=O)OC(C)C)C[C@@H]1C [Example I-1069]
1000 to 10000 nM | 100 to 500 nM | 50 to 500 nM | CCCS(=O)(=O)c1ccc(-c2ccc3c(c2)N(C(=O)C2CC2)C[C@H](C)N3C(C)=O)cc1 [Example I-1070]
1000 to 10000 nM | 100 to 500 nM | 50 to 500 nM | CCCS(=O)(=O)c1ccc(-c2ccc3c(c2)N(C(=O)C2CCC2)C[C@H](C)N3C(C)=O)cc1 [Example I-1071]
100 to 1000 nM | 100 to 500 nM | 50 to 500 nM | CCCS(=O)(=O)c1ccc(-c2ccc3c(c2)N(C(=O)OCC)C[C@H](C)N3C(C)=O)cc1 [Example I-1072]
100 to 1000 nM | 100 to 500 nM | 50 to 500 nM | CCCS(=O)(=O)c1ccc(-c2ccc3c(c2)N(C(=O)OC(C)C)C[C@H](C)N3C(C)=O)cc1 [Example I-1073]
1000 to 10000 nM | > 500 nM | 50 to 500 nM | CC(=O)N1c2ccc(-c3ccc(S(=O)(=O)CC4CC4)cc3)cc2N(C(=O)C2CC2)C[C@@H]1C [Example I-1074]
1000 to 10000 nM | > 500 nM | 50 to 500 nM | CC(=O)N1c2ccc(-c3ccc(S(=O)(=O)CC4CC4)cc3)cc2N(C(=O)C2CCC2)C[C@@H]1C [Example I-1075]
1000 to 10000 nM | > 500 nM | 50 to 500 nM | CCOC(=O)N1C[C@H](C)N(C(C)=O)c2ccc(-c3ccc(S(=O)(=O)CC4CC4)cc3)cc21 [Example I-1076]
1000 to 10000 nM | 100 to 500 nM | 50 to 500 nM | CC(=O)N1c2ccc(-c3ccc(S(=O)(=O)CC4CC4)cc3)cc2N(C(=O)OC(C)C)C[C@@H]1C [Example I-1077]
1000 to 10000 nM | 100 to 500 nM | 50 to 500 nM | CC(=O)N1c2ccc(-c3ccc(S(=O)(=O)CC(C)C)cc3)cc2N(C(=O)C2CC2)C[C@@H]1C [Example I-1078]
1000 to 10000 nM | > 500 nM | 50 to 500 nM | CC(=O)N1c2ccc(-c3ccc(S(=O)(=O)CC(C)C)cc3)cc2N(C(=O)C2CCC2)C[C@@H]1C [Example I-1079]

Second part, the compound before the results:

SMILES | IC50 (BRD4 BD1) | IC50 (MV4-11 cells) | IC50 (BRD4 BD2)
CC(=O)N1c2ccc(-c3ccc(S(=O)(=O)C4CC4)cc3)cc2N(C(=O)C2CC2)C[C@@H]1C [Example I-1031] | 1000 to 10000 nM | 100 to 500 nM | 50 to 500 nM
CC(=O)N1c2ccc(-c3ccc(S(=O)(=O)C4CC4)cc3)cc2N(C(=O)C2CCC2)C[C@@H]1C [Example I-1032] | 1000 to 10000 nM | 100 to 500 nM | 50 to 500 nM
CCOC(=O)N1C[C@H](C)N(C(C)=O)c2ccc(-c3ccc(S(=O)(=O)C4CC4)cc3)cc21 [Example I-1033] | 100 to 1000 nM | 100 to 500 nM | 50 to 500 nM
CC(=O)N1c2ccc(-c3ccc(S(=O)(=O)C4CC4)cc3)cc2N(C(=O)OC(C)C)C[C@@H]1C [Example I-1034] | 100 to 1000 nM | 100 to 500 nM | 50 to 500 nM
CC(=O)N1c2ccc(-c3ccc(S(=O)(=O)NCCO)cc3)cc2N(C(=O)C2CC2)C[C@@H]1C [Example I-1035] | 1000 to 10000 nM | > 500 nM | 50 to 500 nM
CC(=O)N1c2ccc(-c3ccc(S(=O)(=O)NCCO)cc3)cc2N(C(=O)C2CCC2)C[C@@H]1C [Example I-1036] | 1000 to 10000 nM | 100 to 500 nM | 50 to 500 nM
CCOC(=O)N1C[C@H](C)N(C(C)=O)c2ccc(-c3ccc(S(=O)(=O)NCCO)cc3)cc21 [Example I-1037] | 1000 to 10000 nM | 100 to 500 nM | 50 to 500 nM
CC(=O)N1c2ccc(-c3ccc(S(=O)(=O)NCCO)cc3)cc2N(C(=O)OC(C)C)C[C@@H]1C [Example I-1038] | 100 to 1000 nM | 100 to 500 nM | 50 to 500 nM
CC(=O)N1c2ccc(-c3cccc(S(N)(=O)=O)c3)cc2N(C(=O)C2CC2)C[C@@H]1C [Example I-1039] | 1000 to 10000 nM | 100 to 500 nM | < 50 nM
CC(=O)N1c2ccc(-c3cccc(S(N)(=O)=O)c3)cc2N(C(=O)C2CCC2)C[C@@H]1C [Example I-1040] | 1000 to 10000 nM | 100 to 500 nM | < 50 nM
CCOC(=O)N1C[C@H](C)N(C(C)=O)c2ccc(-c3cccc(S(N)(=O)=O)c3)cc21 [Example I-1041] | 1000 to 10000 nM | 100 to 500 nM | 50 to 500 nM
CC(=O)N1c2ccc(-c3cccc(S(N)(=O)=O)c3)cc2N(C(=O)OC(C)C)C[C@@H]1C [Example I-1042] | 1000 to 10000 nM | 100 to 500 nM | 50 to 500 nM
CC(=O)N1c2ccc(-c3cccc(NS(C)(=O)=O)c3)cc2N(C(=O)C2CC2)C[C@@H]1C [Example I-1043] | 1000 to 10000 nM | > 500 nM | 50 to 500 nM
CC(=O)N1c2ccc(-c3cccc(NS(C)(=O)=O)c3)cc2N(C(=O)C2CCC2)C[C@@H]1C [Example I-1044] | 1000 to 10000 nM | > 500 nM | 50 to 500 nM
CCOC(=O)N1C[C@H](C)N(C(C)=O)c2ccc(-c3cccc(NS(C)(=O)=O)c3)cc21 [Example I-1045] | 1000 to 10000 nM | > 500 nM | 50 to 500 nM
CC(=O)N1c2ccc(-c3cccc(S(=O)(=O)N(C)C)c3)cc2N(C(=O)C2CC2)C[C@@H]1C [Example I-1046] | 1000 to 10000 nM | > 500 nM | 50 to 500 nM
CC(=O)N1c2ccc(-c3cccc(S(=O)(=O)N(C)C)c3)cc2N(C(=O)C2CCC2)C[C@@H]1C [Example I-1047] | 1000 to 10000 nM | > 500 nM | 50 to 500 nM
CCOC(=O)N1C[C@H](C)N(C(C)=O)c2ccc(-c3cccc(S(=O)(=O)N(C)C)c3)cc21 [Example I-1048] | 1000 to 10000 nM | > 500 nM | 50 to 500 nM
CC(=O)N1c2ccc(-c3cccc(S(=O)(=O)N(C)C)c3)cc2N(C(=O)OC(C)C)C[C@@H]1C [Example I-1049] | 1000 to 10000 nM | 100 to 500 nM | 50 to 500 nM
CC(=O)N1c2ccc(-c3cccc(S(C)(=O)=O)c3)cc2N(C(=O)C2CC2)C[C@@H]1C [Example I-1050] | 1000 to 10000 nM | > 500 nM | 50 to 500 nM
CC(=O)N1c2ccc(-c3cccc(S(C)(=O)=O)c3)cc2N(C(=O)C2CCC2)C[C@@H]1C [Example I-1051] | 1000 to 10000 nM | > 500 nM | 50 to 500 nM
CCOC(=O)N1C[C@H](C)N(C(C)=O)c2ccc(-c3cccc(S(C)(=O)=O)c3)cc21 [Example I-1052] | 1000 to 10000 nM | > 500 nM | 50 to 500 nM
CC(=O)N1c2ccc(-c3cccc(S(C)(=O)=O)c3)cc2N(C(=O)OC(C)C)C[C@@H]1C [Example I-1053] | 1000 to 10000 nM | 100 to 500 nM | 50 to 500 nM
CCS(=O)(=O)Nc1cccc(-c2ccc3c(c2)N(C(=O)C2CC2)C[C@H](C)N3C(C)=O)c1 [Example I-1054] | 1000 to 10000 nM | 100 to 500 nM | 50 to 500 nM
